Among the test systems are LOX IMVI melanoma; SW-620 colon; BT-549 breast; NCI-H23 lung; DU-145 prostate; COLO 205 colon; NCI/ADR-RES ovarian; UACC-257 melanoma; CAKI-1 renal; SN12C renal.
Experiment in all cases: growth of human tumour cells (NCI), 48 h

The structures appear in SMILES notation.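 Growth conditions: 96-well plates. Treatment: test compound, 48 hours, 5 concentrations. Analysis: linear interpolation between bracketing concentrations; unreached endpoints set to highest concentration. At the GI50, growth is halved. TGI: total growth inhibition.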

On to `Cn1cc(C2=C(c3cccc(OCC(O)CO)c3)C(=O)NC2=O)c2ccccc21` (stereo not given), for which the GI50 is above 25000 nM in the assay on LOX IMVI melanoma; above 25 µM in the assay with SW-620 colon; above 25000 nM in the assay on BT-549 breast; above 25 µM in the assay on NCI-H23 lung; above 25 µM in the assay with DU-145 prostate; above 25000 nM with COLO 205 colon. The GI50 in the assay on NCI/ADR-RES ovarian was above 25000 nM; with UACC-257 melanoma it was above 25 µM; in the assay on CAKI-1 renal, above 25000 nM; in the assay on SN12C renal, above 25 µM. The TGI in the assay on LOX IMVI melanoma, with SW-620 colon, in the assay with BT-549 breast, with NCI-H23 lung, with DU-145 prostate and in the assay with COLO 205 colon was above 25 µM throughout. The TGI in the assay on NCI/ADR-RES ovarian, in the assay on UACC-257 melanoma, with CAKI-1 renal and in the assay with SN12C renal was above 25 µM in each case.

With `CS[C@]12C(=O)C[C@@]3(C)[C@@H](CC[C@]3(O)C(=O)CO)[C@@H]1CCC1=CC(=O)CC[C@@]12C`, the TGI in the assay with LOX IMVI melanoma, with SW-620 colon, with BT-549 breast, with NCI-H23 lung, in the assay with DU-145 prostate and in the assay with COLO 205 colon was above 100 µM each time. Further, the TGI with NCI/ADR-RES ovarian, in the assay with UACC-257 melanoma, in the assay on CAKI-1 renal and in the assay on SN12C renal was above 100 µM each time.

Consider `CCc1ccc(NC(=O)COC(=O)c2cc([N+](=O)[O-])ccc2Sc2nnnn2C)cc1`, for which the GI50 was 6750 nM in the assay with LOX IMVI melanoma; 10.9 µM with SW-620 colon; 4420 nM with BT-549 breast; 9.79 µM with NCI-H23 lung; 4.9 µM with DU-145 prostate; 16000 nM in the assay on COLO 205 colon. The GI50 with NCI/ADR-RES ovarian was 5660 nM; in the assay with UACC-257 melanoma, 19.3 µM; in the assay on CAKI-1 renal, 13700 nM; in the assay with SN12C renal it was 33.2 µM. The TGI turned out to be 22 µM in the assay on LOX IMVI melanoma; 31.5 µM in the assay with SW-620 colon; 26.6 µM with BT-549 breast; 34.6 µM in the assay with NCI-H23 lung; 28.2 µM in the assay on DU-145 prostate; 33.8 µM with COLO 205 colon. In addition, the TGI in the assay on NCI/ADR-RES ovarian was 47.2 µM; with UACC-257 melanoma, 61.2 µM; with CAKI-1 renal, 46.5 µM; in the assay on SN12C renal it was above 100 µM.

As to `CCCCN(CCCC)c1ccc(C(=N)c2ccc(N(CCCC)CCCC)cc2)cc1`, the GI50 with LOX IMVI melanoma is 313 nM; in the assay with SW-620 colon it was 0.306 µM; with BT-549 breast, 1420 nM; in the assay with NCI-H23 lung, 0.292 µM; in the assay with DU-145 prostate, 0.651 µM; in the assay on COLO 205 colon, 322 nM. Also, the GI50 with NCI/ADR-RES ovarian is 479 nM; in the assay on UACC-257 melanoma, 0.561 µM; with CAKI-1 renal, 535 nM; in the assay on SN12C renal it was 0.35 µM. In addition, the TGI worked out at 1.19 µM in the assay on LOX IMVI melanoma; 1.29 µM in the assay on SW-620 colon; 2.89 µM in the assay with BT-549 breast; 1.06 µM in the assay with NCI-H23 lung; 1.79 µM in the assay on DU-145 prostate; 1.05 µM in the assay with COLO 205 colon. The TGI in the assay on NCI/ADR-RES ovarian stood at 1.67 µM; in the assay on UACC-257 melanoma, 1.63 µM; with CAKI-1 renal it was 1.82 µM; in the assay with SN12C renal, 1.44 µM.

As for `C=C1C(=O)OC2C1C(OC(=O)/C(C)=C/C)CC(O)(CCl)C1C(O)C3OC3(C)C21O` (stereo not given), the TGI is above 50 µM with LOX IMVI melanoma; 34.1 µM in the assay with SW-620 colon; above 50 µM in the assay on BT-549 breast; above 50 µM in the assay on NCI-H23 lung; above 50 µM in the assay on DU-145 prostate; 41.9 µM with COLO 205 colon. The TGI in the assay with NCI/ADR-RES ovarian, in the assay on UACC-257 melanoma, in the assay with CAKI-1 renal and in the assay on SN12C renal was above 50 µM throughout.

On to `COc1ccc(C(=O)c2cc3c(N)c(C(=O)Nc4cccc5ccccc45)sc3nc2C)cc1`, for which the GI50 in the assay with LOX IMVI melanoma is 287 nM; with SW-620 colon, 0.203 µM; in the assay with BT-549 breast, 379 nM; with NCI-H23 lung it was 0.334 µM; with DU-145 prostate, 0.19 µM; with COLO 205 colon, 209 nM. Moreover, the GI50 with NCI/ADR-RES ovarian was 181 nM; with UACC-257 melanoma it was above 50 µM; in the assay on CAKI-1 renal, 243 nM; in the assay on SN12C renal, 0.32 µM. Further, the TGI in the assay on LOX IMVI melanoma was above 50 µM; in the assay with SW-620 colon, above 50 µM; in the assay with BT-549 breast, above 50 µM; with NCI-H23 lung it was above 50 µM; with DU-145 prostate, above 50 µM; in the assay with COLO 205 colon, above 13.3 µM. The TGI with NCI/ADR-RES ovarian, in the assay on UACC-257 melanoma, in the assay on CAKI-1 renal and in the assay with SN12C renal was above 50 µM in each case.

Turning to `Nc1[nH]nc2nc(-c3cccs3)cc(C(F)(F)F)c12`, the GI50 was above 25000 nM in the assay on LOX IMVI melanoma; above 25 µM in the assay on SW-620 colon; above 24100 nM with BT-549 breast; above 25 µM with NCI-H23 lung; above 25 µM with DU-145 prostate; above 25000 nM in the assay with COLO 205 colon. Besides, the GI50 in the assay on NCI/ADR-RES ovarian is above 25000 nM; in the assay on UACC-257 melanoma it was above 25 µM; in the assay with CAKI-1 renal, above 20300 nM; with SN12C renal it was above 25 µM. Besides, the TGI with LOX IMVI melanoma, with SW-620 colon, with BT-549 breast, in the assay with NCI-H23 lung, in the assay on DU-145 prostate and in the assay with COLO 205 colon was above 25 µM in each case. For the same molecule, the TGI with NCI/ADR-RES ovarian, in the assay with UACC-257 melanoma, with CAKI-1 renal and with SN12C renal was above 25 µM throughout.

For `O=C(Nc1ccc(Cl)cc1)Nc1ccc(Nc2nncc3ccccc23)cc1`, the GI50 was 825 nM in the assay on LOX IMVI melanoma; 3.16 µM with SW-620 colon; 2150 nM in the assay on BT-549 breast; 3.07 µM in the assay on NCI-H23 lung; 3.17 µM in the assay with DU-145 prostate; 2770 nM in the assay on COLO 205 colon. Moreover, the GI50 with NCI/ADR-RES ovarian was 2790 nM; in the assay with UACC-257 melanoma, 3.41 µM; in the assay with CAKI-1 renal, 1970 nM; in the assay on SN12C renal, 4.58 µM. In addition, the TGI with LOX IMVI melanoma is 14.6 µM; in the assay with SW-620 colon it was 18.6 µM; in the assay on BT-549 breast it was 9.28 µM; with NCI-H23 lung, 14.4 µM; with DU-145 prostate, 26.9 µM; with COLO 205 colon, 9.58 µM. For the same molecule, the TGI in the assay on NCI/ADR-RES ovarian was determined as 26.3 µM; in the assay with UACC-257 melanoma, 10.8 µM; in the assay with CAKI-1 renal it was 12.5 µM; with SN12C renal, 37.2 µM.

For the origin of these results see PubChem BioAssay (NCI).
